Results from ChEMBL document CHEMBL1201862, “PubChem BioAssay data set” (2004).
“And” between values parts separate entries of the source, which are not always exact repeats. Equal values may be shown once. The source made the active and inactive calls.

Legend:
[1] = target: Hepatocyte nuclear factor 4-alpha (Homo sapiens, UniProt P41235); format: functional, cell-based;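 further: biochemical luminescence-based dose-response counterscreen measuring inhibition of HNF4 dimerization, run alongside a screen for blockers of ABHD5–perilipin-5 interaction; split luciferase complementation of HNF4 fusion proteins in cell lysate measuring dimerization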
cells [2] = format: functional, cell-based
cells [3] = format: functional, cell-based; remark: listed apart in the source
[4] = target: Dual specificity protein phosphatase 3 (Homo sapiens, UniProt P51452); assay: VHR phosphatase inhibition, dose response, selectivity assay for STEP inhibitor project, biochemical (AID 602374); format: functional; conditions: read-out: IC50_Mean
[5] = target: Tyrosine-protein phosphatase non-receptor type 11 (Homo sapiens, UniProt Q06124); assay: SHP2 phosphatase inhibition, dose response, selectivity assay for STEP inhibitor project, biochemical (AID 602367); format: functional; conditions: read-out: IC50_Mean
[6] = target: Tyrosine-protein phosphatase non-receptor type 5 (Homo sapiens, UniProt P54829); assay: STEP phosphatase inhibitors, confirmation, biochemical, fluorescence intensity, uHTS hits (AID 602372); format: functional; conditions: read-out: IC50_Mean
Melanocortin receptor 4 = Melanocortin receptor 4 (Homo sapiens, UniProt P32245); format: functional, cell-based;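 further: Cell-based assay with luminescence read-out, confirmatory dose-response testing for agonist activity of biased ligands at MC4R; human U2OS cells with tagged receptor and beta-arrestin; potency of agonists that increase receptor coupling to beta-arrestin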
Vero = assay: cells; format: functional; conditions: Chlorocebus sabaeus
[7] = control 3'UTR Renilla luciferase suppression, dose response, counter-screen for Shn3 inhibitor project, cell-based, Clone20-Shn3RL, cherry-picked (AID 624133); format: functional
[8] = target: T1, Ubiquitin-conjugating enzyme E2 N (Homo sapiens, UniProt P61088); format: functional
T1 sequence (P61088 whole entry): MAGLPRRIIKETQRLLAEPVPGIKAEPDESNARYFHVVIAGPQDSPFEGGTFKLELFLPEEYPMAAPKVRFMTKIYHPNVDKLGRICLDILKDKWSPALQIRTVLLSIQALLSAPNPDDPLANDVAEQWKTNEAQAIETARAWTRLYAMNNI

[9] = target: Neurotensin receptor type 1 (Homo sapiens, UniProt P30989); format: functional;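 further: Image-based confirmatory dose-response assay measuring agonist activity at NTR1; NTR1-expressing U2OS osteosarcoma cells imaged for beta-arrestin GFP spot formation; agonist potency where compounds increase beta-arrestin recruitment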
[10] = Shn3 3'UTR reporter inhibitors, dose response, cell-based, Clone20 osteoblasts, firefly luciferase, cherry-picked (AID 624132); format: functional;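 further: firefly luciferase luminescence from reporter carrying the Shn3 3'UTR in osteoblasts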
Protein RecA = target: T2, Protein RecA (Mycobacterium tuberculosis, UniProt P9WHJ3); assay: Fluorescence Cell-Free Homogeneous Dose Retest to Identify Inhibitors of RecA-Intein Splicing Activity. [Related pubchem assays (depositor defined):AID2097, AID2223, AID489010, AID492950]; format: functional
T2 sequence (P9WHJ3 whole entry): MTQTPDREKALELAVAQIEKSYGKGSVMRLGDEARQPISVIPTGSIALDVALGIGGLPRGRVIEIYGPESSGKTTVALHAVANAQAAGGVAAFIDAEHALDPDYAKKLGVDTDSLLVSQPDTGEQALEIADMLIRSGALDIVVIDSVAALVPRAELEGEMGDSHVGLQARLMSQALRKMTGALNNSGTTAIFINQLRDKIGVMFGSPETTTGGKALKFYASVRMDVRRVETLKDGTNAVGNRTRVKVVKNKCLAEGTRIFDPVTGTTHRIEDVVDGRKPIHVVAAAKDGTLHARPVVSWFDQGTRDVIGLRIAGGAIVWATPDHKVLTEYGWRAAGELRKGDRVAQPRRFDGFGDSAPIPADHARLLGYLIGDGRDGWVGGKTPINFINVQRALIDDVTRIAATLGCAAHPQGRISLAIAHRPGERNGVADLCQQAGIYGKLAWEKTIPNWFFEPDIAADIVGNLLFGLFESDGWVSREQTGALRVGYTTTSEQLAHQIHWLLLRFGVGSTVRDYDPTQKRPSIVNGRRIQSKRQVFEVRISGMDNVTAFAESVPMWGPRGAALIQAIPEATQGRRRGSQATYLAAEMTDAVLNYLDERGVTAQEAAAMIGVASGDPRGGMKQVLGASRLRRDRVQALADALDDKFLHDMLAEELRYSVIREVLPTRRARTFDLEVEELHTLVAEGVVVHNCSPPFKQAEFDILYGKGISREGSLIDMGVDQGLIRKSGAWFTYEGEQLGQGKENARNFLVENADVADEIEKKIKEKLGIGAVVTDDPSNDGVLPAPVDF

[11] = target: T3, Apoptotic protease-activating factor 1 (Homo sapiens, UniProt O14727); format: functional
T3 sequence (O14727 whole entry): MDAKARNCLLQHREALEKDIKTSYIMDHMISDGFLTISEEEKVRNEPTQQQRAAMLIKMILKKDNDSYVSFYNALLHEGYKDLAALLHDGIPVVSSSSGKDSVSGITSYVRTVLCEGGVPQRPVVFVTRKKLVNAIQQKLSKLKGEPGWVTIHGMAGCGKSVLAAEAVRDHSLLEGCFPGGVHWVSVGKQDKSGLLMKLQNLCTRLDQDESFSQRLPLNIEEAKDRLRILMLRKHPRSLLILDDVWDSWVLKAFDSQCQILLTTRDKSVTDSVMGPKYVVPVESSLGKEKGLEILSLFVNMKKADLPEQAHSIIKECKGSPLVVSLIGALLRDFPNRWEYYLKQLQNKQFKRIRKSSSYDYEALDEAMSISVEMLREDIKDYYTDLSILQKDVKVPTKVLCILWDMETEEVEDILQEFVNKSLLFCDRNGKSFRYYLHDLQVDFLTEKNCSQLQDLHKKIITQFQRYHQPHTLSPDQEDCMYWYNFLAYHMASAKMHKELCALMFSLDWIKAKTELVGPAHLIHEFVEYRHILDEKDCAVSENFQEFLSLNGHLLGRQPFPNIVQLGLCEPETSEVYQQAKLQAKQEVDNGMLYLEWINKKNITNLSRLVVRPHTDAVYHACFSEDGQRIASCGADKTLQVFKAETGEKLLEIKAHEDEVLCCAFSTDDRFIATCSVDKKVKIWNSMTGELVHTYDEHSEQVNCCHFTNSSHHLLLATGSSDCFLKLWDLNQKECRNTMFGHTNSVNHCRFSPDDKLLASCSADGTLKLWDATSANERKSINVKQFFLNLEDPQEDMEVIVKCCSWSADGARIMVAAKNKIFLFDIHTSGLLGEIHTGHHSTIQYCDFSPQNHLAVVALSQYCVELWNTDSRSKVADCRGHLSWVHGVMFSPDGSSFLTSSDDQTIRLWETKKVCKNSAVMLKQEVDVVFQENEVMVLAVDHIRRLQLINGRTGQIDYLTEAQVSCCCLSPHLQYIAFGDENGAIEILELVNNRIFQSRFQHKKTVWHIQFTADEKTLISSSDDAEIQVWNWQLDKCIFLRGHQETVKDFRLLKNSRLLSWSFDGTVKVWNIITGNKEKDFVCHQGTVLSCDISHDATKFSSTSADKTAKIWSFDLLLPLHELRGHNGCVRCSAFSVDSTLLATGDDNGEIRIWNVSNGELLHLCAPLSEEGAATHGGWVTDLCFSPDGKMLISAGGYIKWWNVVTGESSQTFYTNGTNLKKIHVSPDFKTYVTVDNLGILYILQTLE

Bcl-2-related protein A1 = target: T4, Bcl-2-related protein A1 (Mus musculus, UniProt Q07440); format: functional;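 further: confirmatory dose–response counterscreen on Bfl-1, used to check hits from a UBC13 polyubiquitin inhibitor campaign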
T4 sequence (Q07440 whole entry): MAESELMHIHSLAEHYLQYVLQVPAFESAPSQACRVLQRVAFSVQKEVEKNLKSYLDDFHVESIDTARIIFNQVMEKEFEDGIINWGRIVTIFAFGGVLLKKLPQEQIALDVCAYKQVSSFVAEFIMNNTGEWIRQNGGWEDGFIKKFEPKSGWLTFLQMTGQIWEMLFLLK

[12] = target: T5, Replicative DNA helicase DnaB (Mycobacterium tuberculosis, UniProt P9WMR3); assay: DnaB intein splicing inhibitors, dose response, biochemical, cell-free fluorescence (AID 449749); format: functional
T5 sequence (P9WMR3 whole entry): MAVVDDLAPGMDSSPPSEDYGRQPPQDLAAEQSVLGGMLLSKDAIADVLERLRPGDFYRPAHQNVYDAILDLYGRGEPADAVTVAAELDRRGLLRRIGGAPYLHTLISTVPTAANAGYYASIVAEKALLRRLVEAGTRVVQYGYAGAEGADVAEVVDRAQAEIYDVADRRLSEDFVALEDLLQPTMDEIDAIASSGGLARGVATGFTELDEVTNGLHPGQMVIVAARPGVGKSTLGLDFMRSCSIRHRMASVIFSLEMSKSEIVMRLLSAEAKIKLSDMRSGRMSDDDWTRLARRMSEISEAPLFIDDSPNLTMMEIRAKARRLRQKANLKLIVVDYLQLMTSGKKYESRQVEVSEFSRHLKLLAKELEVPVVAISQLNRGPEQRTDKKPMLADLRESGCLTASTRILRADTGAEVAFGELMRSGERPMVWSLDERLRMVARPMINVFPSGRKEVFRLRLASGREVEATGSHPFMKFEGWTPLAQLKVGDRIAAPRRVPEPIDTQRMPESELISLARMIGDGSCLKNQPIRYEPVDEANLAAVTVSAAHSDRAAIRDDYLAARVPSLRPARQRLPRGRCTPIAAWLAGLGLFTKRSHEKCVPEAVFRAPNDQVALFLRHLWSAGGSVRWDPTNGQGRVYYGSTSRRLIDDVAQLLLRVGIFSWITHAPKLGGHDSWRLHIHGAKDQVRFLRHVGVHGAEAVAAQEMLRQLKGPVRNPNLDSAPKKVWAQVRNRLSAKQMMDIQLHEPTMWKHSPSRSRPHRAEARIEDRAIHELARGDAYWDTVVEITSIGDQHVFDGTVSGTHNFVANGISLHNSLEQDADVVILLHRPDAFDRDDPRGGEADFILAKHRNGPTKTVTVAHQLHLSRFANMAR

[13] = target: T1, Ubiquitin-conjugating enzyme E2 N; format: functional; remark: listed apart in the source
[14] = target: Heat shock protein HSP 90-alpha (Homo sapiens, UniProt P07900); format: functional, organism-based
INS1 = assay: beta cell apoptosis inhibitors, cytokine rescue, dose response, luminescence, retest (AID 449756); format: functional, cell-based;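 further: cell death triggered by IL-1 beta plus TNF-alpha plus IFN-gamma mixture; protective hits raise ATP signal compared with cytokine alone wells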
[15] = target: Photoreceptor-specific nuclear receptor (Homo sapiens, UniProt Q9Y5X4); format: functional, cell-based;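 further: CHO-S cells with Gal4-NCOR and VP16-NR2E3 two-hybrid luciferase reporter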
Protein Wnt-3a = Protein Wnt-3a (Mus musculus, UniProt P27467); assay: Wnt3a-driven reporter signaling inhibition, dose response, selectivity assay for Gli-SUFU antagonist project, Wnt-LIGHT cells, luminescence (AID 651570); format: functional; conditions: read-out: IC50_Mean;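 further: Wnt-LIGHT reporter cells stimulated with conditioned medium from Wnt3a-producing cells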
T-cell = assay: inhibitors of CD8+ T cell–vesicle binding, dose response, mouse 2C CD8+ T cells, flow cytometry (AID 485284); format: functional
[16] = HepG2 cell cytotoxicity, dose response, cytotoxicity control for Shn3 inhibitor project, CellTiter-Glo, cherry-picked (AID 624134); format: functional, cell-based
[17] = target: T6, Short transient receptor potential channel 4 (Mus musculus, UniProt Q9QUQ5); assay: mouse TRPC4 channel activators, dose response, cell-based, HEK293 TRPC4/mu-opioid, Fluo-4 calcium (AID 434937); format: functional
T6 sequence (Q9QUQ5 whole entry): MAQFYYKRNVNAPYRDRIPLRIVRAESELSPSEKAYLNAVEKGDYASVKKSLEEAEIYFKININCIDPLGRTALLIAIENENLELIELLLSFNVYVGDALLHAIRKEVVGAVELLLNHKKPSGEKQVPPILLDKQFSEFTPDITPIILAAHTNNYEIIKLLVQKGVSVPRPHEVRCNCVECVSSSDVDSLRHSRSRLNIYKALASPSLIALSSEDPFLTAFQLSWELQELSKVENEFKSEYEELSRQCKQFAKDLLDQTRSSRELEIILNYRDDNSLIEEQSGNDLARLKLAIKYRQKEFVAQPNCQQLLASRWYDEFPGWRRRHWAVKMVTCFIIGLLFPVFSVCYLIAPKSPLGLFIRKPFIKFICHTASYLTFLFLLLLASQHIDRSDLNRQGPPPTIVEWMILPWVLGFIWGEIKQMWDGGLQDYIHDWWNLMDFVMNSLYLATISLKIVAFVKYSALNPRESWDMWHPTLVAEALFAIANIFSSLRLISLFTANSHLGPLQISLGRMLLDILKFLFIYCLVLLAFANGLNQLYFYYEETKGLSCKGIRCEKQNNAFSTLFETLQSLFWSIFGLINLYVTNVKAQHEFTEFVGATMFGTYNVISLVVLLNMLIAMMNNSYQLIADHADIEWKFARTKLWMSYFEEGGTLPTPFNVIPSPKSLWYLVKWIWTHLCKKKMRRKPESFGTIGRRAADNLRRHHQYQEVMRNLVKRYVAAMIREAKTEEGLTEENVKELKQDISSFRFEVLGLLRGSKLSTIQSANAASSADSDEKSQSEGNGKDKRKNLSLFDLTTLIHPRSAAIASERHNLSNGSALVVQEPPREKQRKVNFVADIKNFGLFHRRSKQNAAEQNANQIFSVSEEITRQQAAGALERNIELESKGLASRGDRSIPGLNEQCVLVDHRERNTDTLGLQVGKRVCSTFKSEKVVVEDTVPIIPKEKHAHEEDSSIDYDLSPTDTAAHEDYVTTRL

Chain of Protein Wnt-3a (P27467 whole entry): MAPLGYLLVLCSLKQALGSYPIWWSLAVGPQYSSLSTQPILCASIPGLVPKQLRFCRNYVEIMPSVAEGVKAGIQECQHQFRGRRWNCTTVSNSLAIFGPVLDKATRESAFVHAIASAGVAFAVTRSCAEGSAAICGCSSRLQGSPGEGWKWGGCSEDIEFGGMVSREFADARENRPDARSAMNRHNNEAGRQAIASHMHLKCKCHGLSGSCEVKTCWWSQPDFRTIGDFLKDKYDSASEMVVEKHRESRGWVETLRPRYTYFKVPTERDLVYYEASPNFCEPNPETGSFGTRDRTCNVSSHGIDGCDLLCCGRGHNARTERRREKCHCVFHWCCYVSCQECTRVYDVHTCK
Chain of Hepatocyte nuclear factor 4-alpha (P41235 whole entry, the tested form may be a part): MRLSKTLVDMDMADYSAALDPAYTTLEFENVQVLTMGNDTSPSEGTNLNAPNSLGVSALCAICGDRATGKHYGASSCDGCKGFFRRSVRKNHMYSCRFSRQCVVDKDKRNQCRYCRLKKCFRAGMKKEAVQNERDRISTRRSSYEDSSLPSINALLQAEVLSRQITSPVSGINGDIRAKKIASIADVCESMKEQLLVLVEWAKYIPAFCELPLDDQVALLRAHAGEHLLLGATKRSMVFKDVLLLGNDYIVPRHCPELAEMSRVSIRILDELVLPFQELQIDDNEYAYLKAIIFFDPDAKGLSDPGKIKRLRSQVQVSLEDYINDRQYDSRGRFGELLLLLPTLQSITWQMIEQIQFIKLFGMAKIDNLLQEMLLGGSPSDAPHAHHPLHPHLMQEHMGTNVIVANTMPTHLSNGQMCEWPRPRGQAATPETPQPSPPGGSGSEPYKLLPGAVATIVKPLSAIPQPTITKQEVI
Chain of Dual specificity protein phosphatase 3 (P51452 whole entry): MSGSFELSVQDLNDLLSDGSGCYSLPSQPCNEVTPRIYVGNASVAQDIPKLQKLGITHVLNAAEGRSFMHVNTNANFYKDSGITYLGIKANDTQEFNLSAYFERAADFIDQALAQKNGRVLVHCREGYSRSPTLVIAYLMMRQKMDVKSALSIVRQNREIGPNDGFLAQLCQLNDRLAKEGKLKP
Chain of Melanocortin receptor 4 (P32245 whole entry): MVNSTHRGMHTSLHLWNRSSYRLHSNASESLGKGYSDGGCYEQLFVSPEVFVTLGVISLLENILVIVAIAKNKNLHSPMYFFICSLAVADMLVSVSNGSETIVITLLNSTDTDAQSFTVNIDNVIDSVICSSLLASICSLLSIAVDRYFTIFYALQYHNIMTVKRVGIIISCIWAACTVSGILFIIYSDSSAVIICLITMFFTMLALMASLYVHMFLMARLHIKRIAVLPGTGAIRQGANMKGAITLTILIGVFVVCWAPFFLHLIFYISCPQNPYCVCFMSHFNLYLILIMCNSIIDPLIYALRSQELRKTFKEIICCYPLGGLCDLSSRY
Chain of Photoreceptor-specific nuclear receptor (Q9Y5X4 whole entry, the tested form may be a part): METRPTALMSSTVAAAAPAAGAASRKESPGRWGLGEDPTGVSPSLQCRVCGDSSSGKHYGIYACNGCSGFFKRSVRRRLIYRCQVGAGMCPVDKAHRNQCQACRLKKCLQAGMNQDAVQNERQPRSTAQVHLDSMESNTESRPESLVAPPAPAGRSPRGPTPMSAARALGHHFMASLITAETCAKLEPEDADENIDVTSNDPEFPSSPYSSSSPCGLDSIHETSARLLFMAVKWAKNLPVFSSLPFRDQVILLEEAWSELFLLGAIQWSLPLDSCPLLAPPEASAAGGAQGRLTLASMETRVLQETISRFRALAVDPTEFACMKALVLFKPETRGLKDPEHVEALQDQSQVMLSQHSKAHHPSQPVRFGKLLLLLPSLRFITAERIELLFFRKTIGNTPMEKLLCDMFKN
Chain of Tyrosine-protein phosphatase non-receptor type 11 (Q06124 whole entry): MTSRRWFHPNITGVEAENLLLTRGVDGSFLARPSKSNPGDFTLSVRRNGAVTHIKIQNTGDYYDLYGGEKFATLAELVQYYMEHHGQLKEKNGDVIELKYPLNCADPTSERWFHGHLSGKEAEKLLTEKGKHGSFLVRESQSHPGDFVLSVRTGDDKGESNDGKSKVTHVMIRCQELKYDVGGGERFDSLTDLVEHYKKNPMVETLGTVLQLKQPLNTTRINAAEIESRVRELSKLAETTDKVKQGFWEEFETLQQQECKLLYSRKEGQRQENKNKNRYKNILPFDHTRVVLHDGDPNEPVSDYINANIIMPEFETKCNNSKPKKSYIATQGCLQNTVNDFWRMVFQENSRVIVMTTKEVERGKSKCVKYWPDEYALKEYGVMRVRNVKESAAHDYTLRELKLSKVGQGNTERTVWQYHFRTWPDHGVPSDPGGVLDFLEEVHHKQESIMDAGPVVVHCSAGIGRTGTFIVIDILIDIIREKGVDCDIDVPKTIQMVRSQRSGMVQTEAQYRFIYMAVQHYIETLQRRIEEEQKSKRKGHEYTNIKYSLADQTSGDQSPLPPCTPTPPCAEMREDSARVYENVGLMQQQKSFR
Chain of Neurotensin receptor type 1 (P30989 whole entry): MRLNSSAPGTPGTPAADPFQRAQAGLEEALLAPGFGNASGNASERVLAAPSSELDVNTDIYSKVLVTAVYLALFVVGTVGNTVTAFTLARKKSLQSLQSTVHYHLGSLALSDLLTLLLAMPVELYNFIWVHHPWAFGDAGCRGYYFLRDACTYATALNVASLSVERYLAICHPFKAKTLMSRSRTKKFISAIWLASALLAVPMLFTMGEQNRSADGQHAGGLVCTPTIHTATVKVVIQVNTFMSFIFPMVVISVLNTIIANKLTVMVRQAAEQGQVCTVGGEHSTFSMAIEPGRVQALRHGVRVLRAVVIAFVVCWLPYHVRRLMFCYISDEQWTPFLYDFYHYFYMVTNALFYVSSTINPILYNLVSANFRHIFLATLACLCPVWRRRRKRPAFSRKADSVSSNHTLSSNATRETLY
Chain of Tyrosine-protein phosphatase non-receptor type 5 (P54829 whole entry): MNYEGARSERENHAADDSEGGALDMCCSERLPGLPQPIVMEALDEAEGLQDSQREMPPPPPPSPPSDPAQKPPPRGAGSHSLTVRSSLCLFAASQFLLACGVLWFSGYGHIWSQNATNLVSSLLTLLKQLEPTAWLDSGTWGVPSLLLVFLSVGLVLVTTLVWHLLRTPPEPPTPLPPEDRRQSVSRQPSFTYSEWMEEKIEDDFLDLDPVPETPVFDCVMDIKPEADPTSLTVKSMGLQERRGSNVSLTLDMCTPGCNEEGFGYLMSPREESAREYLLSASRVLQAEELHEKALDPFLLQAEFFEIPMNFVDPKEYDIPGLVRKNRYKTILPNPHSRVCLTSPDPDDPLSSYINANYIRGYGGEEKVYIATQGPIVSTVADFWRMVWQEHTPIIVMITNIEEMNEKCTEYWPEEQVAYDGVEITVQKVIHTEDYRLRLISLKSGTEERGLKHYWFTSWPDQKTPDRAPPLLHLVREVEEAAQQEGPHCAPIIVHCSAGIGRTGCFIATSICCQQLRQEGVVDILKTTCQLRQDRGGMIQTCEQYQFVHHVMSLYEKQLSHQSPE

COc1ccccc1/C=C/C(=O)c1ccccc1
active: IC50 [1] 7.12 µM | EC50 (cells [2]) 6.12 µM
> 350 µM (not active): EC50 (cells [3])

S=C(c1ccc(Br)cc1)N1CCN(Cc2ccccc2)CC1
inactive: IC50 [6] 22.7 µM
active: IC50 [4] 0.719 µM | IC50 [5] 1.81 µM

CCCCCCCCCCOC(=O)Cn1c(COc2ccc(OC)cc2)[n+](C)c2ccccc21
active: CC50 (Vero) > 25 µM | AC50 [7] 3.44 µM | IC50 [8] 12.5 µM | EC50 [9] 15.8 µM | AC50 [10] 2.01 µM | EC50 (Protein RecA) 10.6 µM and 11.1 µM | IC50 [11] 10.7 µM and 13.4 µM | IC50 (Bcl-2-related protein A1) 19.1 µM | AC50 [12] 3.97 µM and 4.05 µM | IC50 [13] 11 µM | AC50 [14] 38.2 µM | AC50 (INS1; Rattus norvegicus, INS1) 3.65 µM | AC50 (INS1; ins1) 3.47 µM
inactive: EC50 (Melanocortin receptor 4) > 89.2 µM

Cc1ccc(OCCOC(=O)c2cc(S(=O)(=O)N3CCCCC3)ccc2N2CCOCC2)cc1
active: IC50 (Protein Wnt-3a) 4.83 µM | EC50 (T-cell) 11.8 µM
inactive: IC50 [15] 12.6 µM

Cc1sc2ncnc(NCC(C)(C)N3CCOCC3)c2c1C
active: AC50 [7] 3 µM | AC50 [16] 4.09 µM | AC50 [10] 1.36 µM | IC50 (Protein Wnt-3a) 0.942 µM | EC50 [17] 0.841 µM | AC50 (INS1; Rattus norvegicus, INS1) 2.96 µM

O=C(NC1CCCCC1)C(c1cc2ccccc2o1)n1c(=O)c(-c2ccco2)nc2ccccc21 (stereo not given)
active: IC50 [1] 2.19 µM
